Laboratory results from ChEMBL document CHEMBL1155797, “Cinnamoyl- and hydroxycinnamoyl amides of glaucine and their antioxidative and antiviral activities” (Bioorg Med Chem, 2008).

How the values were obtained:
[1] = Cytotoxicity against human FL cells after 24 hrs; type: cell-based
[2] = test system: Poliovirus 1; assay: Antiviral activity against Poliovirus type 1 Lsc-2ab in human FL cells; type: functional, organism-based; conditions: Enterovirus C
[3] = Selectivity index, CC50 for human FL cells to IC50 for Poliovirus type 1 Lsc-2ab; type: functional
[4] = test system: Coxsackievirus B1; assay: Antiviral activity against Coxsackievirus B1 in human FL cells; type: functional, organism-based; conditions: Enterovirus B
[5] = Selectivity index, CC50 for human FL cells to IC50 for Coxsackievirus B1; type: functional
[6] = test system: Echovirus E13; assay: Antiviral activity against Echovirus 13 in human FL cells; type: functional, organism-based; conditions: Enterovirus B
[7] = Selectivity index, CC50 for human FL cells to IC50 for Echovirus 13; type: functional
[8] = Cytotoxicity against human HeLa Ohio-1 cells; type: cell-based
[9] = Selectivity index, CC50 for human HeLa Ohio-1 cells to IC50 for Human rhinovirus type 14; type: functional
[10] = test system: HeLa; assay: Cytotoxicity against human HeLa Ohio-1 cells
[11] = test system: Radical scavenging activity; assay: Antioxidant activity assessed as DPPH free radical scavenging activity at 0.9 mM after 20 mins; type: functional
[12] = test system: Radical scavenging activity; assay: Antioxidant activity assessed as DPPH free radical scavenging activity at 1.8 mM after 10 mins; type: functional
[13] = test system: Radical scavenging activity; assay: Antioxidant activity assessed as DPPH free radical scavenging activity at 0.9 mM after 10 mins; type: functional
[14] = test system: Radical scavenging activity; assay: Antioxidant activity assessed as DPPH free radical scavenging activity at 1.8 mM after 20 mins; type: functional
[15] = test system: Radical scavenging activity; assay: Antioxidant activity assessed as DPPH free radical scavenging activity at 3.6 mM after 10 mins; type: functional
[16] = test system: Radical scavenging activity; assay: Antioxidant activity assessed as DPPH free radical scavenging activity at 3.6 mM after 20 mins; type: functional
[17] = test system: Poliovirus 1; assay: Antiviral activity against Poliovirus type 1 Lsc-2ab in human FL cells assessed as inhibition of cytopathic effect relative to control; type: functional
[18] = test system: Coxsackievirus B1; assay: Antiviral activity against Coxsackievirus B1 in human FL cells assessed as inhibition of cytopathic effect relative to control; type: functional
[19] = test system: Echovirus E13; assay: Antiviral activity against Echovirus 13 in human FL cells assessed as inhibition of cytopathic effect relative to control; type: functional

## Cc1cc(CCCCCCCOc2ccc(C3=NCCO3)cc2)on1 [DISOXARIL]
[1]
  CC50 at 24 h: 25 µM
[2]
  IC50: 2 µM
[3]
  Ratio CC50/IC50: 12.5
[4]
  IC50: 2 µM
[5]
  Ratio CC50/IC50: 12.5
[6]
  IC50: 1.3 µM
[7]
  Ratio CC50/IC50: 19.2
[8]
  IC50: 1.5 µM
[9]
  Ratio CC50/IC50: 14
[10]
  CC50: 21 µM

## O=C(O)/C=C/c1ccc(O)cc1
[11]
  Activity: 2.9%
[12]
  Activity: 3.7%
[13]
  Activity: 2.1%
[14]
  Activity: 4.7%
[15]
  Activity: 4.5%
[16]
  Activity: 6.1%

## COc1cc2c(cc1OC)-c1c(OC)c(OC)c(CNC(=O)/C=C/c3ccccc3O)c3c1C(C2)N(C)CC3 (centres undefined)
[11]
  Activity: 0.8%
[12]
  Activity: 2.3%
[13]
  Activity: 1.1%
[14]
  Activity: 3.6%
[15]
  Activity: 3.3%
[16]
  Activity: 4.2%
[1]
  CC50 at 24 h: 152 µM
[17]
  inhibition (INH): <=25%
[18]
  inhibition (INH): 0%
[19]
  inhibition (INH): 0%
[8]
  IC50: 15 µM
[9]
  Ratio CC50/IC50: 10.3
[10]
  CC50: 155 µM

## COc1cc(/C=C/C(=O)O)cc(OC)c1O
[11]
  Activity: 17.2%
[12]
  Activity: 26.5%
[13]
  Activity: 16.1%
[14]
  Activity: 31.9%
[15]
  Activity: 69%
[16]
  Activity: 69.6%

## COc1cc2c(cc1OC)-c1c(OC)c(OC)c(CNC(=O)/C=C/c3ccc(O)cc3)c3c1C(C2)N(C)CC3 (centres undefined)
[11]
  Activity: 1.8%
[12]
  Activity: 2%
[13]
  Activity: 1.8%
[14]
  Activity: 2.5%
[15]
  Activity: 3.2%
[16]
  Activity: 4.8%
[1]
  CC50 at 24 h: 160 µM
[17]
  inhibition (INH): <50%
[18]
  inhibition (INH): 0%
[6]
  IC50: 32 µM
[7]
  Ratio CC50/IC50: 5
[8]
  IC50: 13 µM
[9]
  Ratio CC50/IC50: 11
[10]
  CC50: 143 µM

## COc1cc(/C=C/C(=O)O)ccc1O
[11]
  Activity: 13.8%
[12]
  Activity: 21%
[13]
  Activity: 12%
[14]
  Activity: 25.1%
[15]
  Activity: 36.7%
[16]
  Activity: 44.3%

## COc1cc2c(cc1OC)-c1c(OC)c(OC)cc3ccnc(c13)C2=O [OXOGLAUCINE]
[1]
  CC50 at 24 h: 52 µM
[2]
  IC50: 1.2 µM
[3]
  Ratio CC50/IC50: 43.3
[4]
  IC50: 2.5 µM
[5]
  Ratio CC50/IC50: 20.8
[6]
  IC50: 0.5 µM
[7]
  Ratio CC50/IC50: 104
[8]
  IC50: 0.3 µM
[9]
  Ratio CC50/IC50: 170
[10]
  CC50: 51 µM

## COc1cc2c(cc1OC)-c1c(OC)c(OC)c(CNC(=O)/C=C/c3cc(OC)c(O)c(OC)c3)c3c1C(C2)N(C)CC3 (centres undefined)
[11]
  Activity: 10.5%
[12]
  Activity: 14.4%
[13]
  Activity: 8%
[14]
  Activity: 18%
[15]
  Activity: 26.3%
[16]
  Activity: 31.6%
[1]
  CC50 at 24 h: 112 µM
[17]
  inhibition (INH): 0%
[18]
  inhibition (INH): 0%
[19]
  inhibition (INH): 0%
[8]
  IC50: 28 µM
[9]
  Ratio CC50/IC50: 4.5
[10]
  CC50: 125 µM

## COc1cc2c(cc1OC)-c1c(OC)c(OC)cc3c1[C@H](C2)N(C)CC3 [GLAUCINE]
[11]
  Activity: 1.2%
[12]
  Activity: 1.1%
[13]
  Activity: 0.8%
[14]
  Activity: 1.3%
[15]
  Activity: 1.4%
[16]
  Activity: 1.6%
[1]
  CC50 at 24 h: 115 µM
[2]
  IC50: 60 µM
[3]
  Ratio CC50/IC50: 1.9
[4]
  IC50: 21 µM
[5]
  Ratio CC50/IC50: 5.5
[6]
  IC50: 60 µM
[7]
  Ratio CC50/IC50: 1.9
[8]
  IC50: 22 µM
[9]
  Ratio CC50/IC50: 8.3
[10]
  CC50: 182 µM

## O=C(O)/C=C/c1ccccc1O
[11]
  Activity: 2.4%
[12]
  Activity: 2.2%
[13]
  Activity: 2.1%
[14]
  Activity: 2.7%
[15]
  Activity: 3.3%
[16]
  Activity: 3.6%

## COc1cc(/C=C/C(=O)NCc2c3c4c(c(OC)c2OC)-c2cc(OC)c(OC)cc2CC4N(C)CC3)ccc1O (centres undefined)
[11]
  Activity: 10.1%
[12]
  Activity: 16.6%
[13]
  Activity: 8.3%
[14]
  Activity: 19.4%
[15]
  Activity: 31.2%
[16]
  Activity: 36.1%
[1]
  CC50 at 24 h: 105 µM
[17]
  inhibition (INH): 0%
[18]
  inhibition (INH): 0%
[19]
  inhibition (INH): <=25%
[8]
  IC50: 12 µM
[9]
  Ratio CC50/IC50: 9.4
[10]
  CC50: 113 µM

## COc1cc2c(cc1OC)-c1c(OC)c(OC)c(CN)c3c1C(C2)N(C)CC3 (centres undefined)
[11]
  Activity: 2.5%
[12]
  Activity: 2.2%
[13]
  Activity: 1.6%
[14]
  Activity: 3%
[15]
  Activity: 2.9%
[16]
  Activity: 3.8%
